Columns and labels:
[1] = tested on: human lung fibroblast-like (HLF) cells; experiment: MTT antiproliferative assay, HLF; assay type: cell-based; conditions: 72 h
Source text: (§1) Ru3–Ru9 also show a certain selectivity for cancer cells over normal cells, and Ru2, Ru3, Ru5 and Ru9 show higher selectivity index (SI) values than the other complexes.
(§2) PA-BPP was then used to confirm the molecular targets of Ru5 by modifying it with a ‘minimalist’ biorthogonal handle-containing photo-cross-linker. Through our structure–activity relationship analysis and comparison with other ruthenium complexes utilizing phen as the auxiliary ligands with similar coordination structures (using cisplatin as a control), we propose that the β-carboline ligands play an important role in antiproliferative activity. To maintain the binding characteristics of the β-carboline moiety with the targeted biomolecules, we linked the photo-cross-linker to one of the auxiliary ligands of Ru5.

Ru5-treated cells = experiment: Effect of cell death inhibitors on antiproliferative activity; assay type: cell-based; conditions: 24 h
Procedure: Figure 4. Ru5 induces mitophagy and ferroptosis and inhibits EMT in vitro. (A) TEM images of A549 cells treated with vehicle (1% DMSO) or Ru5 (10 μM, 12 h). Red rectangles represent the region enlarged. Scale bar: 5 μm and 500 nm (enlarged). (B) The morphological examination of mitochondria in A549 cells treated with Ru5 (10 μM) for the indicated time intervals. MTG: λex = 514 nm; λem = 540 ± 20 nm. LTDR: λex = 633 nm; λem = 700 ± 20 nm. Scale bar: 20 μm. (C) Western blotting analysis showing the impact of Ru5 (24 h) on the expression of proteins related to mitochondrial dysfunction and ferroptosis. (D and E) The impact of different inhibitors on antiproliferative activity of Ru5 (24 h). (F) RT-qPCR analysis of EMT-related genes in A549 cells after Ru5 (10 μM, 12 h) treatment. (G) The impact of Ru5 (5 μM) on the migration of A549 cells was measured by a wound healing assay. Scale bar: 100 μm. (H) Quantitative analysis of the impact of Ru5 on wound healing. (I) Selective images of the impact of Ru5 (5 μM, 48 h) on the migration of A549 cells detected by transwell assay. Scale bar: 100 μm. Data are presented as means ± SD from three independent experiments. *P ≤ 0.05, **P ≤ 0.01, ***P ≤ 0.001, by Student's t-test.
We then used different specific inhibitors to further confirm the modes of cell death induced by Ru5. These inhibitors act on autophagy (3-methyladenine, 3-MA, Fig. 4D), ferroptosis (liproxstatin-1, Lip-1, Fig. 4E), necroptosis (necrostatin-1, Nec-1, Fig. S47A) and apoptosis (Z-VAD-FMK, Fig. S47B). The effect of 3-MA on the antiproliferative activity of Ru5 is concentration-dependent, with lower and higher concentrations enhancing and inhibiting the antiproliferative activity of Ru5, respectively. Thus, Ru5 induces cytoprotective autophagy at lower concentrations, while autophagic cell death is induced at higher concentrations. As expected, Lip-1 can relieve the antiproliferative activity of Ru5. However, Nec-1 and Z-VAD-FMK show no effect on the cell viability of Ru5-treated cells.

[2] = Aqueous solubility by concentration-absorbance linearity; assay type: physicochemical; conditions: PBS with 1% DMSO
Source text: Subsequently, the lipophilicity and aqueous solubility of Ru1–Ru9 were investigated.

[3] = target: ATPase (mitochondrial ATP synthase); experiment: Inhibition of the enzymatic activity of ATPase in vitro; assay type: biochemical; conditions: read-out: Inhibition constant (Ki)
Procedure: Figure 1. Validation of ATP5F1 as the molecular target of Ru5. (A) Proteins pulled down by streptavidin from A549 cells treated with Ru5a followed by PAL. The cells were treated with Ru5a (50 μM) for 12 h and irradiated with UV light for 20 min. (B) The top five peptides enriched by Ru5a-mediated PAL were identified with the assistance of SILAC-based chemoproteomic studies. H1F0: H1 histone family member 0; HIST4H4: histone cluster 4 H4; HIST3H2BB: histone cluster 3 H2B family member b; ATP5F1E: ATP synthase F1 subunit epsilon; HIST1H2AJ: histone cluster 1 H2A family member J. (C) Pull-down western blotting analysis of ATPase in A549 cells treated with Ru5a. (D) Cellular Ru content in cells treated with Ru5/Ru5a (20 μM, 12 h) measured by ICP-MS. (E) Impact of Ru5/Ru5a (10 μM) on the thermal stability of ATP5F1 measured by CETSA. (F) Impact on the anticancer activities of Ru5/Ru5a against wild type and ATPase knocking down (by siRNA) A549 cells. The relative cellular viability was calculated using the cells without drug treatment in each group as the control group. (G) Inhibition of Ru5/Ru5a on the enzymatic activity of ATPase. (-)-blebbistatin was used as the positive control. (H) Molecular docking of Ru5 with ATPase (PDB: 3ZIA). The red dashes indicate the hydrogen bonds formed between Ru5 and the amino acid residues (SER38 and GLN39). The yellow dashes indicate the hydrophobic interaction between Ru5 and the amino acid residues (ASN15 and GLN19). Data are presented as means ± SD from three independent experiments. TEXT PRINTED IN THE PICTURE: (B) Ru5a: Log2 (fold change) (Ru5a/DMSO): 1.43 (Protein name: H1F0); Log2 (fold change) (Ru5a/DMSO): 1.23 (Protein name: HIST4H4); Log2 (fold change) (Ru5a/DMSO): 1.22 (Protein name: HIST3H2BB); Log2 (fold change) (Ru5a/DMSO): 1.21 (Protein name: ATP5F1E); Log2 (fold change) (Ru5a/DMSO): 1.12 (Protein name: HIST1H2AJ) DOUBTS OF THE COPYIST ABOUT THIS PICTURE: Panel B: the table rows are proteins enriched by Ru5a, not separate substances. […]

[4] = tested on: cervical carcinoma (HeLa); experiment: MTT antiproliferative assay, HeLa; assay type: cell-based, human; conditions: 72 h
Source text: as §1, §2

Compound: F[P-](F)(F)(F)(F)F.F[P-](F)(F)(F)(F)F.[Ru+2].c1ccc2c(c1)[nH]c1c(-c3ncc[nH]3)nccc12.c1cnc2c(c1)ccc1cccnc12.c1cnc2c(c1)ccc1cccnc12 [Ru5]
- IC50 [1]: 33.9 ± 0.2 µM
- Effect of 3-MA (autophagy inhibitor) on antiproliferative activity (Ru5-treated cells): concentration-dependent
- Effect of Lip-1 (ferroptosis inhibitor) on antiproliferative activity (Ru5-treated cells): relieve
- Effect of Nec-1 (necroptosis inhibitor) on cell viability (Ru5-treated cells): no effect
- Effect of Z-VAD-FMK (apoptosis inhibitor) on cell viability (Ru5-treated cells): no effect
- Linear relationship between absorbance and concentration up to [2]: at least 100 μM
- Ki [3]: 6.2 ± 1.4 µM
- IC50 [4]: 3.1 ± 0.7 µM

Reference: publication PMC11304990, “Identification of mitochondrial ATP synthase as the cellular target of Ru-polypyridyl-β-carboline complexes by affinity-based protein profiling” (National Science Review, 2024)
